Where “and” joins values, the source holds several entries; their conditions need not be identical. Equal values may be shown once. Toxic doses and inconclusive results are not listed.
Test system: P388 leukemia ip, CD2F1 mice, survival T/C
Test: NCI In Vivo Anticancer Drug Screen. Data for tumor model P388 Leukemia (intraperitoneal) in CD2F1 (CDF1) mice
Conditions: endpoint: median survival time, higher = longer survival
How it was run: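 Mice carrying the transplanted tumor received test compound or vehicle. Survival was recorded in each group, and the value is the treated-group measurement divided by that of the vehicle-treated control group.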

[1] = dose: 12.5 mg/kg/injection, schedule: Q01DX009 (ip), vehicle: saline with Tween-80
[2] = dose: 50.0 mg/kg/injection, schedule: Q01DX009 (ip), vehicle: saline with Tween-80
[3] = dose: 60.0 mg/kg/injection, schedule: Q01DX005 (ip), vehicle: saline with Tween-80
[4] = dose: 100.0 mg/kg/injection, schedule: Q01DX009 (ip), vehicle: saline with Tween-80
[5] = dose: 200.0 mg/kg/injection, schedule: Q01DX009 (ip), vehicle: saline with Tween-80
[6] = dose: 120.0 mg/kg/injection, schedule: Q01DX005 (ip), vehicle: saline with Tween-80
[7] = dose: 240.0 mg/kg/injection, schedule: Q01DX005 (ip), vehicle: saline with Tween-80
[8] = dose: 50.0 mg/kg/injection, schedule: Q01DX009 (ip), vehicle: Klucel (hydroxypropylcellulose) (HPC)
[9] = dose: 100.0 mg/kg/injection, schedule: Q01DX009 (ip), vehicle: Klucel (hydroxypropylcellulose) (HPC)
[10] = dose: 200.0 mg/kg/injection, schedule: Q01DX009 (ip), vehicle: Klucel (hydroxypropylcellulose) (HPC)

Question: `Cc1cc(=O)n2c3c(c4c(cc13)c(CN(C)C)cc(=O)n4C)OC2` was tested. Which T/C [1] did it give?
Answer: Its T/C is 111 % of control.

Question: And the T/C (dose: 25.0 mg/kg/injection, schedule: Q01DX009 (ip), vehicle: saline with Tween-80)?
Answer: The T/C was 152 % of control.

Question: And the T/C [2]?
Answer: The T/C was 102 % of control and 118 % of control.

Question: Which T/C [3] does the source give for `NC1(C(=O)O)CCCC1.O.[Cl][Au]` here?
Answer: The T/C was 110 % of control.

Question: With `CSc1cccc(NC(=O)OCCOc2ccccc2Cl)c1` as the compound, how does the T/C [2] read?
Answer: The T/C was 105 % of control.

Question: What about the T/C [4] of the same compound?
Answer: The T/C was 101 % of control.

Question: What about the T/C [5] of the same compound?
Answer: The T/C was 100 % of control.

Question: For `N#CC(c1ccccc1)c1nccc2ccccc12` (stereo not drawn), which T/C (dose: 100.0 mg/kg/injection, schedule: Q04DX002 (ip), vehicle: saline with Tween-80) is on record?
Answer: The T/C was 99 % of control.

Question: What about the T/C (dose: 200.0 mg/kg/injection, schedule: Q04DX002 (ip), vehicle: saline with Tween-80) of the same compound?
Answer: The T/C was 100 % of control.

Question: For `O=P(OC1=CCCCC1)(c1ccccc1)c1ccccc1`, which T/C [3] is on record?
Answer: The T/C was 99 % of control.

Question: What about the T/C [6] of the same compound?
Answer: The T/C was 100 % of control.

Question: What about the T/C [7] of the same compound?
Answer: The T/C was 97 % of control.

Question: Which results are given for `CCC(C(=O)O)C(=O)O.[NH2-].[NH2-].[Pt+2]`?
Answer: T/C (dose: 50.0 mg/kg/injection, schedule: Q01DX001 (ip), vehicle: saline): 152 % of control; T/C (dose: 100.0 mg/kg/injection, schedule: Q01DX001 (ip), vehicle: saline): 175 % of control; T/C (dose: 200.0 mg/kg/injection, schedule: Q01DX001 (ip), vehicle: saline): 189 % of control and 205 % of control

Question: Which T/C [8] does the source give for `c1ccc(-c2[s+]ccc3ccccc23)cc1` here?
Answer: The T/C was 115 % of control.

Question: What about the T/C [9] of the same compound?
Answer: The T/C was 118 % of control.

Question: And the T/C [10]?
Answer: The T/C was 117 % of control.

Question: With `CCCCC(C)(CN(C)C)C(=O)/C=C/c1ccc(Cl)c(Cl)c1` (stereo not drawn) as the compound, how does the T/C (dose: 3.13 mg/kg/injection, schedule: Q01DX009 (ip), vehicle: saline) read?
Answer: Its T/C is 111 % of control and 97 % of control.

Question: What about the T/C (dose: 6.25 mg/kg/injection, schedule: Q01DX009 (ip), vehicle: saline) of the same compound?
Answer: The T/C was 102 % of control and 108 % of control.

Question: And the T/C (dose: 12.5 mg/kg/injection, schedule: Q01DX009 (ip), vehicle: saline)?
Answer: The T/C was 109 % of control.

Question: And the T/C (dose: 25.0 mg/kg/injection, schedule: Q01DX009 (ip), vehicle: saline)?
Answer: The T/C was 106 % of control and 109 % of control.

Question: Which T/C [2] does the source give for `Cc1ccc(S(=O)(=O)NC(=O)O/N=C/c2ccc3c(c2)OCO3)cc1` here?
Answer: Its T/C is 100 % of control.

Question: What about the T/C [4] of the same compound?
Answer: Its T/C is 97 % of control.

Question: And the T/C [5]?
Answer: Its T/C is 100 % of control.

Question: How did the T/C (dose: 50.0 mg/kg/injection, schedule: Q01DX009 (ip), vehicle: saline) turn out when `CC(=O)NO` was run?
Answer: Its T/C is 104 % of control.

Question: And the T/C (dose: 100.0 mg/kg/injection, schedule: Q01DX009 (ip), vehicle: saline)?
Answer: Its T/C is 96 % of control.

Question: And the T/C (dose: 200.0 mg/kg/injection, schedule: Q01DX009 (ip), vehicle: saline)?
Answer: The T/C was 103 % of control.

Question: Which T/C (dose: 50.0 mg/kg/injection, schedule: Q01DX005 (ip), vehicle: sodium bicarbonate) does the source give for `Nc1cc2c(cc1Br)-c1c(C(=O)O)cccc1C2O` (stereo not drawn) here?
Answer: Its T/C is 113 % of control.

Question: What about the T/C [3] of the same compound?
Answer: The T/C was 100 % of control and 101 % of control.

Question: And the T/C (dose: 100.0 mg/kg/injection, schedule: Q01DX005 (ip), vehicle: sodium bicarbonate)?
Answer: Its T/C is 123 % of control.

Question: And the T/C [6]?
Answer: Its T/C is 104 % of control.

Question: What about the T/C [7] of the same compound?
Answer: The T/C was 123 % of control.

Question: What about the T/C (dose: 480.0 mg/kg/injection, schedule: Q01DX005 (ip), vehicle: saline with Tween-80) of the same compound?
Answer: The T/C was 154 % of control.

Question: With `COc1ccc(/C=N/NC(=O)CNC(=O)c2ccc(Cl)c(Cl)c2)cc1` as the compound, how does the T/C (dose: 3.13 mg/kg/injection, schedule: Q01DX009 (ip), vehicle: saline with Tween-80) read?
Answer: Its T/C is 100 % of control.

Question: What about the T/C (dose: 6.25 mg/kg/injection, schedule: Q01DX009 (ip), vehicle: saline with Tween-80) of the same compound?
Answer: The T/C was 108 % of control.

Question: And the T/C [1]?
Answer: Its T/C is 107 % of control.

Question: What does the source list for `CNC(=O)OCCC(OC(=O)NC)C1CCC2C3CC=C4CC(OC(=O)c5ccccc5)CCC4(C)C3CCC12C` (stereo not drawn)?
Answer: T/C (dose: 50.0 mg/kg/injection, schedule: Q01DX005 (ip), vehicle: Klucel (hydroxypropylcellulose) (HPC)): 103 % of control; T/C (dose: 100.0 mg/kg/injection, schedule: Q01DX005 (ip), vehicle: Klucel (hydroxypropylcellulose) (HPC)): 99 % of control; T/C (dose: 200.0 mg/kg/injection, schedule: Q01DX005 (ip), vehicle: Klucel (hydroxypropylcellulose) (HPC)): 92 % of control

Question: What does the source list for `CN1CCC(c2ccccc2)(C(O)(c2ccccc2)c2ccccc2)CC1`?
Answer: T/C (dose: 12.5 mg/kg/injection, schedule: Q01DX005 (ip), vehicle: saline with Tween-80): 90 % of control; T/C (dose: 25.0 mg/kg/injection, schedule: Q01DX005 (ip), vehicle: saline with Tween-80): 100 % of control; T/C (dose: 50.0 mg/kg/injection, schedule: Q01DX005 (ip), vehicle: saline with Tween-80): 100 % of control and 111 % of control; T/C (dose: 100.0 mg/kg/injection, schedule: Q01DX005 (ip), vehicle: saline with Tween-80): 107 % of control

Question: `C=C1C(=O)O[C@@H]2/C=C(\C)CC/C=C(/C)CC[C@@H]12` was tested. Which T/C (dose: 12.5 mg/kg/injection, schedule: Q04DX003 (ip), vehicle: Klucel (hydroxypropylcellulose) (HPC)) did it give?
Answer: Its T/C is 100 % of control.

Question: What about the T/C (dose: 25.0 mg/kg/injection, schedule: Q04DX003 (ip), vehicle: Klucel (hydroxypropylcellulose) (HPC)) of the same compound?
Answer: The T/C was 107 % of control.

Question: And the T/C (dose: 50.0 mg/kg/injection, schedule: Q04DX003 (ip), vehicle: Klucel (hydroxypropylcellulose) (HPC))?
Answer: The T/C was 100 % of control.

Question: What about the T/C (dose: 100.0 mg/kg/injection, schedule: Q04DX003 (ip), vehicle: Klucel (hydroxypropylcellulose) (HPC)) of the same compound?
Answer: The T/C was 113 % of control.

Question: Which results are given for `NC(Cc1ccc(N(CCCl)CCCl)cc1)C(=O)O` (stereo not drawn)?
Answer: T/C (dose: 3.12 mg/kg/injection, schedule: Q01DX009 (ip), vehicle: Klucel (hydroxypropylcellulose) (HPC)): 285 % of control and 309 % of control; T/C (dose: 6.25 mg/kg/injection, schedule: Q01DX009 (ip), vehicle: Klucel (hydroxypropylcellulose) (HPC)): 99 % of control and 105 % of control and 117 % of control

Question: With `CC(=O)c1cc2cc3c4c(c2oc1=O)CCCN4CCC3` as the compound, how does the T/C (dose: 60.0 mg/kg/injection, schedule: Q01DX005 (ip), vehicle: Klucel (hydroxypropylcellulose) (HPC)) read?
Answer: The T/C was 104 % of control.

Question: And the T/C (dose: 120.0 mg/kg/injection, schedule: Q01DX005 (ip), vehicle: Klucel (hydroxypropylcellulose) (HPC))?
Answer: Its T/C is 112 % of control.

Question: What does the source list for `Clc1ccc2c(Cl)ncnc2c1`?
Answer: T/C [2]: 104 % of control; T/C [4]: 100 % of control; T/C [5]: 90 % of control

Question: Which T/C (dose: 0.19 mg/kg/injection, schedule: Q01DX005 (ip), vehicle: saline) does the source give for `Cc1cccc[c]1[Sn]([Cl])([O][Sn]([Cl])([c]1ccccc1C)[c]1ccccc1C)[c]1ccccc1C` here?
Answer: The T/C was 110 % of control.

Question: And the T/C (dose: 0.39 mg/kg/injection, schedule: Q01DX005 (ip), vehicle: saline)?
Answer: Its T/C is 114 % of control.

Question: And the T/C (dose: 1.56 mg/kg/injection, schedule: Q01DX005 (ip), vehicle: saline)?
Answer: Its T/C is 124 % of control.

Question: Which results are given for `CNC(=S)Sc1c(Cl)c(Cl)c(Cl)c(Cl)c1Cl`?
Answer: T/C [8]: 108 % of control; T/C [9]: 108 % of control; T/C [10]: 99 % of control

Question: With `C#CCOC(=O)Nc1nc2ccc(SC#N)cc2s1` as the compound, how does the T/C (dose: 12.5 mg/kg/injection, schedule: Q01DX009 (ip), vehicle: Klucel (hydroxypropylcellulose) (HPC)) read?
Answer: Its T/C is 104 % of control.

Question: What about the T/C (dose: 25.0 mg/kg/injection, schedule: Q01DX009 (ip), vehicle: Klucel (hydroxypropylcellulose) (HPC)) of the same compound?
Answer: The T/C was 107 % of control.

Question: And the T/C [8]?
Answer: The T/C was 107 % of control and 90 % of control.

Question: Which T/C (dose: 25.0 mg/kg/injection, schedule: Q01DX009 (ip), vehicle: other) does the source give for `CC(=O)N(C)N(Cc1ccc([N+](=O)[O-])cc1)C(C)=O` here?
Answer: Its T/C is 95 % of control.

Question: And the T/C (dose: 50.0 mg/kg/injection, schedule: Q01DX009 (ip), vehicle: other)?
Answer: Its T/C is 102 % of control.

Question: What about the T/C (dose: 100.0 mg/kg/injection, schedule: Q01DX009 (ip), vehicle: other) of the same compound?
Answer: Its T/C is 93 % of control.

Question: And the T/C (dose: 200.0 mg/kg/injection, schedule: Q01DX009 (ip), vehicle: other)?
Answer: The T/C was 93 % of control.

Question: And the T/C (dose: 400.0 mg/kg/injection, schedule: Q01DX009 (ip), vehicle: other)?
Answer: The T/C was 89 % of control.

Question: For `COC1=CC(=O)c2c(O)c3c(c(O)c2C1=O)OC1(Oc2c(cc4cc(C)oc(=O)c4c2O)CC1O)C3O` (stereo not drawn), which T/C (dose: 3.0 mg/kg/injection, schedule: Q01DX009 (ip), vehicle: Klucel (hydroxypropylcellulose) (HPC)) is on record?
Answer: Its T/C is 100 % of control.

Question: And the T/C (dose: 6.0 mg/kg/injection, schedule: Q01DX009 (ip), vehicle: Klucel (hydroxypropylcellulose) (HPC))?
Answer: The T/C was 117 % of control.

Question: What about the T/C (dose: 12.0 mg/kg/injection, schedule: Q01DX009 (ip), vehicle: Klucel (hydroxypropylcellulose) (HPC)) of the same compound?
Answer: The T/C was 99 % of control.

Question: What about the T/C (dose: 24.0 mg/kg/injection, schedule: Q01DX009 (ip), vehicle: Klucel (hydroxypropylcellulose) (HPC)) of the same compound?
Answer: Its T/C is 99 % of control.
